The text below walks through data of article PMC11088877, “AMP-activated protein kinase can be allosterically activated by ADP but AMP remains the key activating ligand” (Biochemical Journal, 2024).

Each structure is given as a SMILES string. Where “and” joins values, the source holds several entries; their conditions need not be identical. Equal values may be shown once. Some results are limits rather than exact numbers.

Assay [1] has as its target T1, GST-tagged human α2 kinase domain (Homo sapiens, UniProt P54646).
T1 construct: Human GST-tagged α2 kinase domain (1–310); made in house
As to the kind of experiment: Inhibition of GST:α2-kinase domain fusion by AMP or ADP. The conditions noted are these: for Activation / IC50: α2 kinase domain. The assay is classed as biochemical. An excerpt:
To confirm that the inhibition of kinase activity by ADP at high concentrations was due to competition with ATP at the catalytic site on the α subunit, we repeated the assays using a glutathione-S-transferase- (GST-) tagged human α2 kinase domain that had been phosphorylated by LKB1. […] These IC50 values were similar to those obtained with the intact heterotrimers from rat liver (Supplementary Table S1).
Figure 3. Inhibition of GST:α2-kinase domain fusion by AMP or ADP. The kinase domain (phosphorylated on Thr172 by the LKB1:STRADα:MO25α complex) was incubated with various concentrations of AMP or ADP as in Figure 1 using [ATP] at 0.2 (A), 1.0 (B) or 5.0 mM (C) and keeping [Mg^2+] in a constant excess of 4.8 mM above [ATP] [19]. Results (mean ± SD, n = 2) were fitted to the equation: Y = Basal-(Basal × X)/(IC50 + X) where Y is the kinase activity, X is the concentration of AMP or ADP, and IC50 is the concentration of AMP or ADP causing half-maximal inhibition. Dashed vertical lines show the estimates of IC50 values, and best-fit values of all parameters used to generate the curves are listed in Supplementary Table S1.
Sources of antibodies were as described: pThr172 (AMPK-α: Cell Signaling Technologies, Danvers, MA, U.S.A., Cat# 2535), AMPK-α2 [22]. Rat liver AMPK was purified as described previously. Plasmid encoding human (His)6-tagged AMPK (α2β2γ1, bacterially expressed) generated as in [23], was a gift from AstraZeneca, Cambridge, U.K. The L129D/V130D (CBS1), V276G/L277G (CBS3) and I312G (CBS4) mutations in the α2β2γ1 complex were generated using the Quikchange II site-directed mutagenesis kit (Agilent Technologies) and confirmed by DNA sequencing. Human GST-tagged α2 kinase domain (1–310), LKB1:STRAD-α:MO25-α complexes, GST-tagged CaMKK2 [26], and PPM1A (PP2Cα) were produced as described. Bacterially expressed heterotrimers were activated by phosphorylation of Thr172 by GST-tagged CaMKK2 in the presence of ATP, and CaMKK2 was subsequently removed by passage through glutathione-Sepharose. Human GST-tagged α2 kinase domain was activated in a similar manner except that human (His)6-tagged LKB1:STRAD-α:MO25-α complex was used and removed after activation via passage through a His-Trap column. Recombinant human 5′-nucleotidase, CD73, Cat # 5795-EN-01, was from R&D systems (Minneapolis, MN, U.S.A.).
AMPK assays measured the transfer of radioactivity from [γ-^33P]ATP to a peptide substrate, which was separated from unreacted ATP by binding to P81 paper. This assay was described previously except that we used [γ-^33P] rather than [γ-^32P]ATP. In some assays (specified in Figure legends) the concentration of ATP was increased from 0.2 to 1 or 5 mM ATP, with MgCl2 concentrations maintained at a constant 4.8 mM excess above the concentration of ATP [19]. Where allosteric activation by AMP or ADP was being studied, we used the SAMS peptide as substrate. For all other assays the AMARA peptide was used.

Assay [2] deals with FLAG-γ1-containing AMPK complexes. Also noted: method as in PMID 26542978. The conditions noted are these: ADP 300 µM to 3 mM; cited from earlier work.

T1 sequence (P54646 1-310): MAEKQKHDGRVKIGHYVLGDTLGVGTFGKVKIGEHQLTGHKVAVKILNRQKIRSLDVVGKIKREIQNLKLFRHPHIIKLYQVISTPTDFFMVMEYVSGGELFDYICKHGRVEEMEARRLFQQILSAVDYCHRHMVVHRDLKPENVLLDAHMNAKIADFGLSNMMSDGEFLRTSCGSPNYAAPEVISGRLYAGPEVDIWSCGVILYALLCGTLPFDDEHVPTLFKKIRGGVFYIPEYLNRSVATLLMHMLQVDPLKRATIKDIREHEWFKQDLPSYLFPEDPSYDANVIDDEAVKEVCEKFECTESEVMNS

Broadly, the IC50 is the concentration that inhibits the measured activity by half. Higher therefore signals lower potency. On to `Nc1ncnc2c1ncn2[C@@H]1O[C@H](COP(=O)(O)OP(=O)(O)O)[C@@H](O)[C@H]1O` [ADP], for which the Activation entry in assay [1] (0.2 mM ATP), in assay [1] (1.0 mM ATP) and in assay [1] (5.0 mM ATP) was “none” throughout. In addition, the 50% inhibitory concentration (IC50) in assay [1] (0.2 mM ATP) was determined as 0.67 mM; in assay [1] (1.0 mM ATP), 1.6 mM; in assay [1] (5.0 mM ATP), 3.5 mM. In assay [2], the “stimulation of activation by LKB1” value was less than 2 fold.

For `Nc1ncnc2c1ncn2[C@@H]1O[C@H](COP(=O)(O)O)[C@@H](O)[C@H]1O` [AMP], in assay [1] (GST-α2 kinase domain, 0.2 to 5 mM ATP), the “IC50 of AMP relative to IC50 of ADP” value is reported as approximately 3 fold. Besides, the Activation result in assay [1] (0.2 mM ATP), in assay [1] (1.0 mM ATP) and in assay [1] (5.0 mM ATP) was “none” each time. Besides, the IC50 was 2.2 mM in assay [1] (0.2 mM ATP); 5.4 mM in assay [1] (1.0 mM ATP); 13 mM and 13.4 mM in assay [1] (5.0 mM ATP).
